Laboratory results reported in patent publication US11339130B1 (Blade Therapeutics, Inc., priority 2016, dated 2022).
Like-named read-outs stand apart in the source and are kept apart here.

Tests used:
Human Calpain 2/NS1 = biological target: T1, Human Calpain 2/NS1 (Homo sapiens, UniProt P17655); assay: Calpain inhibition continuous fluorescence (FRET) assay, Human Calpain 2/NS1; format: biochemical; details: read-out: Human Calpain 2/NS1 IC50
T1 sequence (P17655 1-700): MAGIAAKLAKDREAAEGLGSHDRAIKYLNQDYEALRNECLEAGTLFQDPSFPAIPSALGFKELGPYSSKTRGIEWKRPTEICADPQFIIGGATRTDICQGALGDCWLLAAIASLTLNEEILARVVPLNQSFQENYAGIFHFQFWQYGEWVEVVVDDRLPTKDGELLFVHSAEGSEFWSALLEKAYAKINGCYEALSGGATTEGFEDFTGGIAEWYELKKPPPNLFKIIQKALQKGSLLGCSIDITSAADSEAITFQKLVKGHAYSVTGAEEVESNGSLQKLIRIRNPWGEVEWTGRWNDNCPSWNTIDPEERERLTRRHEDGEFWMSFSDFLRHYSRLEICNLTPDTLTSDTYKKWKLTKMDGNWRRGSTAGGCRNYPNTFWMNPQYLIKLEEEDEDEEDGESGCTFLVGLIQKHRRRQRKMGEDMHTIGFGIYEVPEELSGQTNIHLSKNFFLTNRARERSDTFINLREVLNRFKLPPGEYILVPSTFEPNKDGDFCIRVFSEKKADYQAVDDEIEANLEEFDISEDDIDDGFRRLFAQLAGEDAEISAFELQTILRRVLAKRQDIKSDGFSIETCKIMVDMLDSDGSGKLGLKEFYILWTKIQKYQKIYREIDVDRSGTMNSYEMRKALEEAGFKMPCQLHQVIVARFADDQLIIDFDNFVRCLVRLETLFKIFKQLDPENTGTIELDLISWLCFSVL
T1 sequence (P04632 1-268 partner): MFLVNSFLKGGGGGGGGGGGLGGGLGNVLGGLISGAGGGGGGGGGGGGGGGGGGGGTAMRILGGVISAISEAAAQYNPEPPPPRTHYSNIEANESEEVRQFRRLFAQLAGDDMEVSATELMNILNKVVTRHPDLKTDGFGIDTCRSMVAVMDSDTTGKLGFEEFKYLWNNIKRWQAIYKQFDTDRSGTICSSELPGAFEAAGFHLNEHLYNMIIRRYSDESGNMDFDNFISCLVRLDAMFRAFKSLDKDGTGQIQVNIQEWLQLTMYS
In short: (§1)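 Fluorescence increase from the cleaved 5-FAM/QXL 520 substrate, read at 490/520 nm, gave activity. Calcium was supplied with the substrate to activate the enzyme in situ after a 25C enzyme-inhibitor preincubation, and IC50s were fit from initial slopes.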

[1] = system: Calpain activity in SH-SY5Y cells (SBDP-150); assay: SH-SY5Y Spectrin western blot assay (SBDP-150 breakdown product, A23187-induced); format: cell-based; details: Homo sapiens, SH-SY5Y cells, read-out: SH-SY5Y Spectrin IC50
Human Calpain 9/NS1 = biological target: T2, Human Calpain 9/NS1 (Homo sapiens, UniProt O14815); assay: Calpain inhibition continuous fluorescence (FRET) assay, Human Calpain 9/NS1; format: biochemical; details: read-out: Human Calpain 9/NS1 IC50
T2 sequence (O14815 1-690): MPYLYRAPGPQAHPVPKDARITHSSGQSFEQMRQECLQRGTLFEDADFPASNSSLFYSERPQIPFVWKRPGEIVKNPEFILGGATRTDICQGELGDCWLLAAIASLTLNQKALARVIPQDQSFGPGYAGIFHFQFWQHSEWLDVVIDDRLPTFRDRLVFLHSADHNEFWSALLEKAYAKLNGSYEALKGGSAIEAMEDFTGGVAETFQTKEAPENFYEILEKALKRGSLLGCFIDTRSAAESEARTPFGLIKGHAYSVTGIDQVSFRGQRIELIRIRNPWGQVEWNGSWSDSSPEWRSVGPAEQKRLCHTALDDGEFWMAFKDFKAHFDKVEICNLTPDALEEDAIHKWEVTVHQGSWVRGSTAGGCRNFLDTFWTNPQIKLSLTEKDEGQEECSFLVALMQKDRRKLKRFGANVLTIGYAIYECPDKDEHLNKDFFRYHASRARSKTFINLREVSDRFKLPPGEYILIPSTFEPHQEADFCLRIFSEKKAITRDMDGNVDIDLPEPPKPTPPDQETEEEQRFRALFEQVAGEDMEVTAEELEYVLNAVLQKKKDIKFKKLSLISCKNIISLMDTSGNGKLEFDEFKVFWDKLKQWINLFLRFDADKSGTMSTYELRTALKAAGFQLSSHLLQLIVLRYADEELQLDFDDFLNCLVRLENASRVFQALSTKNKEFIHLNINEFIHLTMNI
T2 sequence (P04632 1-268 partner): T1 sequence (P04632 1-268 partner)
In short: as §1

Human Calpain 1/NS1 = biological target: T3, Human Calpain 1/NS1 (Homo sapiens, UniProt P07384); assay: Calpain inhibition continuous fluorescence (FRET) assay, Human Calpain 1/NS1; format: biochemical; details: read-out: Human Calpain 1/NS1 IC50
T3 sequence (P07384 1-714): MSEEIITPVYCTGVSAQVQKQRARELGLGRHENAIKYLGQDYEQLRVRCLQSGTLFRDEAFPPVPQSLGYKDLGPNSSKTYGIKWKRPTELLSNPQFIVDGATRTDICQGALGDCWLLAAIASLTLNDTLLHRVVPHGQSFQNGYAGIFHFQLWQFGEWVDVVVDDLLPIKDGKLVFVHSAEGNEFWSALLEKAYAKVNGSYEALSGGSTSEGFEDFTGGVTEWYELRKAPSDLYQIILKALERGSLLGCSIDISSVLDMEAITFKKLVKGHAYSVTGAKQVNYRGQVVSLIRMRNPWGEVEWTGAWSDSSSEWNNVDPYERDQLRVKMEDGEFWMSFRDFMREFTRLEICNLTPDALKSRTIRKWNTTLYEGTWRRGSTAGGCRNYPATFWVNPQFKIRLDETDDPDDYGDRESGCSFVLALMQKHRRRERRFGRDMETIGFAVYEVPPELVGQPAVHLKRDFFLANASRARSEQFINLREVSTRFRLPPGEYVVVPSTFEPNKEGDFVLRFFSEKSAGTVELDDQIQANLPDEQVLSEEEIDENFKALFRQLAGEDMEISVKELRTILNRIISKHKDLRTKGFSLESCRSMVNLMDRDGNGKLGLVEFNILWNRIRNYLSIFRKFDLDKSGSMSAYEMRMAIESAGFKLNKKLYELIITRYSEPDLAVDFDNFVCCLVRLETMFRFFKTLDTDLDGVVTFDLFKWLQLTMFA
T3 sequence (P04632 1-268 partner): T1 sequence (P04632 1-268 partner)
In short: as §1

[2] = system: Calpain activity in SH-SY5Y cells; assay: SH-SY5Y + AMC fluorescence assay (Suc-LLVY-AMC substrate); format: cell-based; details: read-out: SH-SY5Y + AMC IC50
[3] = Column D, A23187-induced SBDP-150
[4] = A23187-induced SBDP-150, western blot

SMILES | IC50 (Human Calpain 2/NS1; Column B) | IC50 [1, 3] | IC50 (Human Calpain 9/NS1; Column C) | IC50 (Human Calpain 1/NS1; Column A) | IC50 (Human Calpain 2/NS1) | IC50 [1, 4] | IC50 (Human Calpain 9/NS1) | IC50 (Human Calpain 1/NS1) | IC50 [2] | IC50 ([2]; Column E)
Cc1cccc2sc(-n3nc(C(=O)N[C@@H](Cc4ccccc4)C(=O)C(N)=O)cc3C)nc12 [Compound 299, (S)—N-(4-amino-3,4-dioxo-1-phenylbutan-2-yl)-5-methyl-1-(4-methylbenzo[d]thiazol-2-yl)-1H-pyrazole-3-carboxamide] | < 3 µM | 10 to 25 µM | < 3 µM | < 3 µM | – | – | – | – | – | –
Cc1cccnc1-n1nc(C(=O)NC(Cc2ccccc2)C(=O)C(N)=O)cc1C (stereo not shown) [Compound 346, N-(4-amino-3,4-dioxo-1-phenylbutan-2-yl)-5-methyl-1-(3-methylpyridin-2-yl)-1H-pyrazole-3-carboxamide] | – | – | – | – | 3 to 10 µM | > 25 µM | 3 to 10 µM | > 10 µM | – | –
NC(=O)C(=O)C(Cc1ccccc1)NC(=O)c1cn(C(F)F)nc1-c1cc2ccccc2cn1 (stereo not shown) [Compound 608, N-(4-amino-3,4-dioxo-1-phenylbutan-2-yl)-1-(difluoromethyl)-3-(isoquinolin-3-yl)-1H-pyrazole-4-carboxamide] | – | – | – | – | < 3 µM | > 25 µM | < 3 µM | < 3 µM | – | –
Cn1cc(C(=O)N[C@@H](Cc2ccccc2)C(=O)C(=O)NCCNC(=O)OC(C)(C)C)c(-c2ccccc2)n1 [Compound 340, Tert-butyl (S)-(2-(3-(1-methyl-3-phenyl-1H-pyrazole-4-carboxamido)-2-oxo-4-phenylbutanamido)ethyl)carbamate] | – | – | – | – | < 3 µM | > 25 µM | < 3 µM | < 3 µM | – | –
Cn1cc(C(=O)NC(Cc2ccccc2)C(=O)C(N)=O)c(-c2cccc(C(F)(F)F)c2F)n1 (stereo not shown) [Compound 516, N-(4-amino-3,4-dioxo-1-phenylbutan-2-yl)-3-(2-fluoro-3-(trifluoromethyl)phenyl)-1-methyl-1H-pyrazole-4-carboxamide] | – | – | – | – | < 3 µM | > 25 µM | < 3 µM | < 3 µM | – | –
NC(=O)C(=O)[C@H](Cc1ccccc1)NC(=O)c1nccn1-c1ccccc1 [Compound 221, (S)—N-(4-amino-3,4-dioxo-1-phenylbutan-2-yl)-1-phenyl-1H-imidazole-2-carboxamide] | < 3 µM | > 25 µM | < 3 µM | < 3 µM | – | – | – | – | – | –
CNC(=O)CNC(=O)C(=O)[C@H](Cc1ccccc1)NC(=O)c1cn(C)nc1-c1ccccc1 [Compound 336, (S)-1-methyl-N-(4-((2-(methylamino)-2-oxoethyl)amino)-3,4-dioxo-1-phenylbutan-2-yl)-3-phenyl-1H-pyrazole-4-carboxamide] | – | – | – | – | < 3 µM | – | < 3 µM | < 3 µM | < 10 µM | –
O=C(NC1CC1)C(=O)C(Cc1ccccc1)NC(=O)c1cc(Cl)nn1-c1ncccn1 (stereo not shown) [Compound 457, 3-chloro-N-(4-(cyclopropylamino)-3,4-dioxo-1-phenylbutan-2-yl)-1-(pyrimidin-2-yl)-1H-pyrazole-5-carboxamide] | – | – | – | – | < 3 µM | – | 3 to 10 µM | < 3 µM | < 10 µM | –
COCCOCCNC(=O)C(=O)[C@H](Cc1ccccc1)NC(=O)c1cn(C)nc1-c1ccccc1 [Compound 335, (S)—N-(4-((2-(2-methoxyethoxy)ethyl)amino)-3,4-dioxo-1-phenylbutan-2-yl)-1-methyl-3-phenyl-1H-pyrazole-4-carboxamide] | – | – | – | – | < 3 µM | – | < 3 µM | < 3 µM | < 10 µM | –
Cc1nc(-c2ccccc2)c(C(=O)N[C@@H](Cc2ccccc2)C(=O)C(N)=O)s1 [Compound 25, (S)—N-(4-amino-3,4-dioxo-1-phenylbutan-2-yl)-2-methyl-4-phenylthiazole-5-carboxamide] | < 3 µM | – | < 3 µM | < 3 µM | – | – | – | – | – | 10 to 25 µM
O=C[C@H](Cc1ccccc1)NC(=O)c1csnc1-c1ccccc1 [Compound 9, (S)—N-(1-oxo-3-phenylpropan-2-yl)-3-phenylisothiazole-4-carboxamide] | < 3 µM | – | < 3 µM | < 3 µM | – | – | – | – | – | 10 to 25 µM
Cc1nc(-c2ccccc2)c(C(=O)N[C@@H](Cc2ccc(OS(=O)(=O)C(F)(F)F)cc2)C(=O)C(N)=O)o1 [Compound 355] | – | – | – | – | < 3 µM | – | < 3 µM | < 3 µM | 10 to 25 µM | –
Cn1cc(C(=O)N[C@@H](Cc2ccccc2)C(=O)C(N)=O)c(-c2cccc(OC(F)(F)F)c2)n1 [Compound 184, (S)—N-(4-amino-3,4-dioxo-1-phenylbutan-2-yl)-1-methyl-3-(3-(trifluoromethoxy)phenyl)-1H-pyrazole-4-carboxamide] | < 3 µM | – | < 3 µM | < 3 µM | – | – | – | – | – | > 25 µM
Cc1ccccc1-c1nc(C(F)(F)F)oc1C(=O)NC(Cc1ccccc1)C(=O)C(N)=O (stereo not shown) [Compound 359, N-(4-amino-3,4-dioxo-1-phenylbutan-2-yl)-4-(o-tolyl)-2-(trifluoromethyl)oxazole-5-carboxamide] | – | – | – | – | < 3 µM | – | < 3 µM | < 3 µM | 10 to 25 µM | –
NC(=O)C(=O)[C@H](Cc1ccccc1)NC(=O)c1conc1-c1cccc(F)c1 [Compound 323, (S)—N-(4-amino-3,4-dioxo-1-phenylbutan-2-yl)-3-(3-fluorophenyl)isoxazole-4-carboxamide] | – | – | – | – | < 3 µM | – | < 3 µM | < 3 µM | > 25 µM | –
Cn1cc(C(=O)NC(Cc2ccccc2)C(=O)C(N)=O)c(-c2ccsc2)n1 (stereo not shown) [Compound 503, N-(4-amino-3,4-dioxo-1-phenylbutan-2-yl)-1-methyl-3-(thiophen-3-yl)-1H-pyrazole-4-carboxamide] | – | – | – | – | < 3 µM | – | < 3 µM | < 3 µM | 10 to 25 µM | –
